Laboratory results reported in patent US20240218022A1, “ANTI-VISTA MACROCYCLIC PEPTIDES AND COMPOSITIONS” (BRISTOL-MYERS SQUIBB COMPANY, priority 2022, published 2024).
Read-outs that look alike come from different tables or passages of the source. Starred links: 1 amine or outer side, 2 acyl side, 3 side chain; linkers in the order of their positions; H or OH if unused. Positions of bridges follow the written chain, without caps; N, C: chain ends. Non-standard residues stand in square brackets, D forms with d. Residues, ends and D or L forms follow the SMILES beside them. Phe(3-Me) = Cc1cccc(C[C@H](N)C(=O)O)c1; γGlu = O=C(O)[C@H](CCC(=O)[*:2])N[*:1]; βAsp = O=C(O)[C@H](CC(=O)[*:2])N[*:1]; Ahp(2) = CCCCC[C@H](N)C(=O)O; NMeNle = CCCC[C@H](NC)C(=O)O; Tle = CC(C)(C)[C@H](N)C(=O)O; NHexGly = CCCCCCNCC(=O)O; Nle = CCCC[C@H](N)C(=O)O; Aun = NCCCCCCCCCCC(=O)O; Dab = NCC[C@H](N)C(=O)O; Nva = CCC[C@H](N)C(=O)O; Abu = CC[C@H](N)C(=O)O; Dap = NC[C@H](N)C(=O)O; AEEA = NCCOCCOCC(=O)O

Molecular target: T1, mouse VISTA (mVISTA) (Mus musculus, UniProt Q9D659)
T1 construct: expressed in transfected cells; host or cells: Human embryonic kidney 293T cells
T1 sequence (Q9D659 33-308): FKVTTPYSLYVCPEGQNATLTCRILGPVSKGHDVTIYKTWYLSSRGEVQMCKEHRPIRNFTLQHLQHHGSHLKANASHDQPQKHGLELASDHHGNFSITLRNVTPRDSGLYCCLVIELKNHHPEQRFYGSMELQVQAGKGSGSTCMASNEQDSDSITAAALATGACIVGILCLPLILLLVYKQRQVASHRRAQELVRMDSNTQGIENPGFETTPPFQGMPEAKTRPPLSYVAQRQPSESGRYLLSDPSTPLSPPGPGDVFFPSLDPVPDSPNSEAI
Assay: Cell-Based Binding High-Content Assay For mVISTA (HC CBA mVISTA)
Details: read-out: HC CBA mVISTA IC50
Procedure, shortened: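 This high-content binding assay uses HEK293T cells expressing murine VISTA, measuring displacement of 2 nM biotinylated peptide by fluorescent streptavidin imaging. IC50 values come from four-parameter logistic fitting.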

[1] = cell-based binding high-content assay

Compound	IC50 [nM]	IC50 [1] [nM]	other results
CCCCCCN1CC(=O)N[C@@H](Cc2ccc(O)cc2)C(=O)N[C@@H](CC(C)C)C(=O)N[C@@H](CC(=O)O)C(=O)N[C@@H](CCCNC(=N)N)C(=O)N(C)[C@@H](CCCC)C(=O)N[C@@H](CCCCC)C(=O)N2CCC[C@H]2C(=O)N[C@@H](C(C)(C)C)C(=O)N[C@@H](CC(N)=O)C(=O)N[C@H](C(=O)NCCOCCOCC(=O)N[C@@H](CC(=O)NCCOCCOCC(=O)NCCCCCCCCCCC(=O)O)C(=O)O)CSCC(=O)N[C@@H](Cc2ccccc2)C(=O)N[C@@H](Cc2cccc(C)c2)C(=O)N[C@@H](CC(=O)O)C1=O [Example 2212] ({CH2CO}-F[Phe(3-Me)]D[NHexGly]YLDR[NMeNle][Ahp(2)]P[Tle]NC[AEEA][βAsp][AEEA][Aun]-OH; thioether N-14)	34.9	–	–
CCCCCCN1CC(=O)N[C@@H](Cc2ccc(O)cc2)C(=O)N[C@@H](CC(C)C)C(=O)N[C@@H](CC(N)=O)C(=O)N[C@@H](CCCNC(=N)N)C(=O)N(C)[C@@H](CCCC)C(=O)N[C@@H](CCCCC)C(=O)N2CCC[C@H]2C(=O)N[C@@H](C(C)(C)C)C(=O)N[C@@H](CO)C(=O)N[C@H](C(=O)N[C@@H](CCC(=O)N[C@@H](CCN)C(=O)NCCCCCCCCCCC(=O)O)C(=O)O)CSCC(=O)N[C@@H](Cc2ccccc2)C(=O)N[C@@H](Cc2ccc(O)cc2)C(=O)N[C@@H](CC(=O)O)C1=O [Example 2323] ({CH2CO}-FYD[NHexGly]YLNR[NMeNle][Ahp(2)]P[Tle]SC[γGlu][Dab][Aun]-OH; thioether N-14)	–	33.9	–
CCCCCCN1CC(=O)N[C@@H](Cc2ccc(O)cc2)C(=O)N[C@@H](CCCC)C(=O)N[C@@H](CC(N)=O)C(=O)N[C@@H](CCCNC(=N)N)C(=O)N(C)[C@@H](CCCC)C(=O)N[C@@H](CCCCC)C(=O)N2CCC[C@H]2C(=O)N[C@@H](C(C)(C)C)C(=O)N[C@@H](CO)C(=O)N[C@H](C(=O)NCC(=O)N[C@@H](CC(=O)NCCOCCOCC(=O)NCCCCCCCCCCC(=O)O)C(=O)O)CSCC(=O)N[C@@H](Cc2ccccc2)C(=O)N[C@@H](Cc2cccc(C)c2)C(=O)N[C@@H](CC(=O)O)C1=O [Example 2327] ({CH2CO}-F[Phe(3-Me)]D[NHexGly]Y[Nle]NR[NMeNle][Ahp(2)]P[Tle]SCG[βAsp][AEEA][Aun]-OH; thioether N-14)	–	33.7	–
CCCCCCN1CC(=O)N[C@@H](Cc2ccc(O)cc2)C(=O)N[C@@H](CCCC)C(=O)N[C@@H](CC(N)=O)C(=O)N[C@@H](CCCNC(=N)N)C(=O)N(C)[C@@H](CCCC)C(=O)N[C@@H](CCCCC)C(=O)N2CCC[C@H]2C(=O)N[C@@H](C(C)(C)C)C(=O)N[C@@H](CC(=O)O)C(=O)N[C@H](C(=O)N[C@@H](CO)C(=O)NCCOCCOCC(=O)NCCCCCCCCCCC(=O)O)CSCC(=O)N[C@@H](Cc2ccccc2)C(=O)N[C@@H](Cc2c[nH]c3ccccc23)C(=O)N[C@@H](CC(=O)O)C1=O [Example 2337] ({CH2CO}-FWD[NHexGly]Y[Nle]NR[NMeNle][Ahp(2)]P[Tle]DCS[AEEA][Aun]-OH; thioether N-14)	–	21.7	–
CCCCCCN1CC(=O)N[C@@H](Cc2ccc(O)cc2)C(=O)N[C@@H](CCCC)C(=O)N[C@@H](CC(N)=O)C(=O)N[C@@H](CCCNC(=N)N)C(=O)N(C)[C@@H](CCCC)C(=O)N[C@@H](CCCCC)C(=O)N2CCC[C@H]2C(=O)N[C@@H](C(C)(C)C)C(=O)N[C@@H](CC(=O)O)C(=O)N[C@H](C(=O)N[C@@H](CC(N)=O)C(=O)NCCOCCOCC(=O)NCCCCCCCCCCC(=O)O)CSCC(=O)N[C@@H](Cc2ccccc2)C(=O)N[C@@H](Cc2c[nH]c3ccccc23)C(=O)N[C@@H](CC(=O)O)C1=O [Example 2338] ({CH2CO}-FWD[NHexGly]Y[Nle]NR[NMeNle][Ahp(2)]P[Tle]DCN[AEEA][Aun]-OH; thioether N-14)	–	52	–
CCCCCCN1CC(=O)N[C@@H](Cc2ccc(O)cc2)C(=O)N[C@@H](CCCC)C(=O)N[C@@H](CC(N)=O)C(=O)N[C@@H](CCCNC(=N)N)C(=O)N(C)[C@@H](CCCC)C(=O)N[C@@H](CCCCC)C(=O)N2CCC[C@H]2C(=O)N[C@@H](C(C)(C)C)C(=O)N[C@@H](CC(=O)O)C(=O)N[C@H](C(=O)N[C@@H](CN)C(=O)NCCOCCOCC(=O)NCCCCCCCCCCC(=O)O)CSCC(=O)N[C@@H](Cc2ccccc2)C(=O)N[C@@H](Cc2c[nH]c3ccccc23)C(=O)N[C@@H](CC(=O)O)C1=O [Example 2339] ({CH2CO}-FWD[NHexGly]Y[Nle]NR[NMeNle][Ahp(2)]P[Tle]DC[Dap][AEEA][Aun]-OH; thioether N-14)	–	26.1	–
CCCCCCN1CC(=O)N[C@@H](Cc2ccc(O)cc2)C(=O)N[C@@H](CCCCC)C(=O)N[C@@H](CC(N)=O)C(=O)N[C@@H](CCCNC(=N)N)C(=O)N[C@@H](CC(C)C)C(=O)N[C@@H](CCCCC)C(=O)N2CCC[C@H]2C(=O)N[C@@H](C(C)C)C(=O)N[C@@H](CO)C(=O)N[C@H](C(=O)N[C@@H](CCC(=O)NCCCCCCCCCCC(=O)O)C(=O)O)CSCC(=O)N[C@@H](Cc2ccccc2)C(=O)N[C@@H](Cc2ccc(O)cc2)C(=O)N[C@@H](CC(=O)O)C1=O [Example 2340] ({CH2CO}-FYD[NHexGly]Y[Ahp(2)]NRL[Ahp(2)]PVSC[γGlu][Aun]-OH; thioether N-14)	19	–	–
CCCCCCN1CC(=O)N[C@@H](Cc2ccc(O)cc2)C(=O)N[C@@H](CCCCC)C(=O)N[C@@H](CC(N)=O)C(=O)N[C@@H](CCCNC(=N)N)C(=O)N[C@@H](CC(C)C)C(=O)N[C@@H](CCCCC)C(=O)N2CCC[C@H]2C(=O)N[C@@H](C(C)C)C(=O)N[C@@H](CO)C(=O)N[C@H](C(=O)NCC(=O)N[C@@H](CCC(=O)O)C(=O)NCCCCCCCCCCC(=O)O)CSCC(=O)N[C@@H](Cc2ccccc2)C(=O)N[C@@H](Cc2ccc(O)cc2)C(=O)N[C@@H](CC(=O)O)C1=O [Example 2341] ({CH2CO}-FYD[NHexGly]Y[Ahp(2)]NRL[Ahp(2)]PVSCGE[Aun]-OH; thioether N-14)	–	–	IC50 (293T cells expressing mouse VISTA, competition with biotinylated peptide (2 nM)): 58 nM
CCCCCCN1CC(=O)N[C@@H](Cc2ccc(O)cc2)C(=O)N[C@@H](CCCC)C(=O)N[C@@H](CC(=O)O)C(=O)N[C@@H](CCCNC(=N)N)C(=O)N[C@@H](CC(C)C)C(=O)N[C@@H](CCCCC)C(=O)N2CCC[C@H]2C(=O)N[C@@H](C(C)C)C(=O)N2CCC[C@H]2C(=O)N[C@H](C(=O)NCC(=O)O)CSCC(=O)N[C@@H](Cc2ccccc2)C(=O)N[C@@H](Cc2ccc(O)cc2)C(=O)N[C@@H](CC(=O)O)C1=O [compound 1118] ({CH2CO}-FYD[NHexGly]Y[Nle]DRL[Ahp(2)]PVPCG-OH; thioether N-14)	29.9	–	–
CCCCCCN1CC(=O)N[C@@H](Cc2ccc(O)cc2)C(=O)N[C@@H](CCC)C(=O)N[C@@H](CC(N)=O)C(=O)N[C@@H](CCCNC(=N)N)C(=O)N[C@@H](CC(C)C)C(=O)N[C@@H](CCCCC)C(=O)N2CCC[C@H]2C(=O)N[C@@H](C(C)C)C(=O)N2CCC[C@H]2C(=O)N[C@H](C(=O)NCC(=O)O)CSCC(=O)N[C@@H](Cc2ccccc2)C(=O)N[C@@H](Cc2ccc(O)cc2)C(=O)N[C@@H](CC(=O)O)C1=O [compound 1120] ({CH2CO}-FYD[NHexGly]Y[Nva]NRL[Ahp(2)]PVPCG-OH; thioether N-14)	2.6	–	–
CCCCCCN1CC(=O)N[C@@H](Cc2ccc(O)cc2)C(=O)N[C@@H](CCCC)C(=O)N[C@@H](CC(N)=O)C(=O)N[C@@H](CCCNC(=N)N)C(=O)N[C@@H](CC(C)C)C(=O)N[C@@H](CCCCC)C(=O)N2CCC[C@H]2C(=O)N[C@@H](C(C)C)C(=O)N2CCC[C@H]2C(=O)N[C@H](C(=O)NCC(=O)O)CSCC(=O)N[C@@H](Cc2ccccc2)C(=O)N[C@@H](Cc2ccc(O)cc2)C(=O)N[C@@H](CC(=O)O)C1=O [compound 1121] ({CH2CO}-FYD[NHexGly]Y[Nle]NRL[Ahp(2)]PVPCG-OH; thioether N-14)	32.4	–	–
CCCCCCN1CC(=O)N[C@@H](Cc2ccc(O)cc2)C(=O)N[C@@H](C(C)C)C(=O)N[C@@H](CC(N)=O)C(=O)N[C@@H](CCCNC(=N)N)C(=O)N[C@@H](CC(C)C)C(=O)N[C@@H](CCCCC)C(=O)N2CCC[C@H]2C(=O)N[C@@H](C(C)C)C(=O)N2CCC[C@H]2C(=O)N[C@H](C(=O)NCC(=O)O)CSCC(=O)N[C@@H](Cc2ccccc2)C(=O)N[C@@H](Cc2ccc(O)cc2)C(=O)N[C@@H](CC(=O)O)C1=O [compound 1122] ({CH2CO}-FYD[NHexGly]YVNRL[Ahp(2)]PVPCG-OH; thioether N-14)	37.6	–	–
CCCCCCN1CC(=O)N[C@@H](Cc2ccc(O)cc2)C(=O)N[C@@H](CC)C(=O)NCC(=O)N[C@@H](CCCNC(=N)N)C(=O)N[C@@H](CC(C)C)C(=O)N[C@@H](CCCCC)C(=O)N2CCC[C@H]2C(=O)N[C@@H](C(C)C)C(=O)N2CCC[C@H]2C(=O)N[C@H](C(=O)NCC(=O)O)CSCC(=O)N[C@@H](Cc2ccccc2)C(=O)N[C@@H](Cc2ccc(O)cc2)C(=O)N[C@@H](CC(=O)O)C1=O [compound 1123] ({CH2CO}-FYD[NHexGly]Y[Abu]GRL[Ahp(2)]PVPCG-OH; thioether N-14)	25.4	–	–
CCCCCCN1CC(=O)N[C@@H](Cc2ccc(O)cc2)C(=O)N[C@@H](CC(C)C)C(=O)NCC(=O)N[C@@H](CCCNC(=N)N)C(=O)N[C@@H](CC(C)C)C(=O)N[C@@H](CCCCC)C(=O)N2CCC[C@H]2C(=O)N[C@@H](C(C)C)C(=O)N2CCC[C@H]2C(=O)N[C@H](C(=O)NCC(=O)O)CSCC(=O)N[C@@H](Cc2ccccc2)C(=O)N[C@@H](Cc2ccc(O)cc2)C(=O)N[C@@H](CC(=O)O)C1=O [compound 1124] ({CH2CO}-FYD[NHexGly]YLGRL[Ahp(2)]PVPCG-OH; thioether N-14)	32.3	–	–
